Test system: 885724-159-R-J1-PDC complex spheroid viability
Experiment: Anticancer human tumor 885724-159-R-J1-PDC patient-derived pancreatic adenocarcinoma cell line growth inhibition [POLQ]
Details: for IC50: curve of first compound; for viability, T/C: stronger effect = lower value; active = viability on the fitted dose curve at most 10% of control; inactive = the rest
Procedure, shortened: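 Complex spheroid viability model combining PDC tumour cells with endothelial (HUVEC) and MSC stromal cells. Novobiocin, ART-558 or RP6685 were tested singly and in combination with standard and investigational anticancer drugs. Each was titrated in half-log steps from near clinical Cmax, or from 10 microM where Cmax was unknown.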

[1] = second compound 0.0316 µM, first compound 0.0316 µM
[2] = second compound 0.0316 µM, first compound 0.1 µM
[3] = second compound 0.0316 µM, first compound 0.316 µM
[4] = second compound 0.0316 µM, first compound 1 µM
[5] = second compound 0.0316 µM, first compound 3.16 µM
[6] = second compound 0.0316 µM, first compound 10 µM
[7] = second compound 0.1 µM, first compound 0.0316 µM
[8] = second compound 0.1 µM, first compound 0.1 µM
[9] = second compound 0.1 µM, first compound 0.316 µM
[10] = second compound 0.1 µM, first compound 1 µM
[11] = second compound 0.1 µM, first compound 3.16 µM
[12] = second compound 0.1 µM, first compound 10 µM
[13] = second compound 0.316 µM, first compound 0.0316 µM
[14] = second compound 0.316 µM, first compound 0.1 µM
[15] = second compound 0.316 µM, first compound 0.316 µM
[16] = second compound 0.316 µM, first compound 1 µM
[17] = second compound 0.316 µM, first compound 3.16 µM
[18] = second compound 0.316 µM, first compound 10 µM
[19] = second compound 1 µM, first compound 0.0316 µM
[20] = second compound 1 µM, first compound 0.1 µM
[21] = second compound 1 µM, first compound 0.316 µM
[22] = second compound 1 µM, first compound 1 µM
[23] = second compound 1 µM, first compound 3.16 µM
[24] = second compound 1 µM, first compound 10 µM
[25] = second compound 3.16 µM, first compound 0.0316 µM
[26] = second compound 3.16 µM, first compound 0.1 µM
[27] = second compound 3.16 µM, first compound 0.316 µM
[28] = second compound 3.16 µM, first compound 1 µM
[29] = second compound 3.16 µM, first compound 3.16 µM
[30] = second compound 3.16 µM, first compound 10 µM
[31] = second compound 10 µM, first compound 0.0316 µM
[32] = second compound 10 µM, first compound 0.1 µM
[33] = second compound 10 µM, first compound 0.316 µM
[34] = second compound 10 µM, first compound 1 µM
[35] = second compound 10 µM, first compound 3.16 µM
[36] = second compound 10 µM, first compound 10 µM
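Also: spheroids exposed to compounds for 7 days.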

Nc1ccn(C2OC(CO)C(O)C2(F)F)c(=O)n1 (stereo unspecified) + Cc1cccc(N(C)C(=O)C2C(O)CCN2c2nc(C)cc(C(F)(F)F)c2C#N)c1
4.15 µM: IC50 (second compound 1 µM)
3.06 µM: IC50 (second compound 3.16 µM)
> 10 µM: IC50 (second compound 0.1 µM)
5.14 µM: IC50 (second compound 0.0316 µM)
4.24 µM: IC50 (second compound 0.316 µM)
7.26 µM: IC50 (second compound 10 µM)
inactive: viability, T/C [1] 59.3% | viability, T/C [2] 55.2% | viability, T/C [3] 55.2% | viability, T/C [4] 52.1% | viability, T/C [5] 56.2% | viability, T/C [6] 42.8% | viability, T/C [7] 70.7% | viability, T/C [8] 56% | viability, T/C [9] 57.5% | viability, T/C [10] 58.2% | viability, T/C [11] 55.3% | viability, T/C [12] 45.9% | viability, T/C [13] 67.2% | viability, T/C [14] 58.5% | viability, T/C [15] 55% | viability, T/C [16] 57.6% | viability, T/C [17] 53.1% | viability, T/C [18] 45.4% | viability, T/C [19] 65.1% | viability, T/C [20] 55.4% | viability, T/C [21] 58.2% | viability, T/C [22] 57.4% | viability, T/C [23] 53.1% | viability, T/C [24] 42.8% | viability, T/C [25] 66% | viability, T/C [26] 56.7% | viability, T/C [27] 52% | viability, T/C [28] 56.8% | viability, T/C [29] 54.5% | viability, T/C [30] 42.8% | viability, T/C [31] 68.9% | viability, T/C [32] 55.5% | viability, T/C [33] 59.3% | viability, T/C [34] 56% | viability, T/C [35] 58% | viability, T/C [36] 45.1%

CC1COCCN1c1cc(-c2ccnn2C)c2ccnc(-c3ccn[nH]3)c2n1 (stereo unspecified) + Cc1cccc(N(C)C(=O)C2C(O)CCN2c2nc(C)cc(C(F)(F)F)c2C#N)c1
inactive: viability, T/C [1] 85.6% | viability, T/C [2] 61.2% | viability, T/C [3] 52.3% | viability, T/C [4] 42.6% | viability, T/C [5] 45.5% | viability, T/C [6] 39% | viability, T/C [7] 87% | viability, T/C [8] 66.2% | viability, T/C [9] 54.2% | viability, T/C [10] 47.5% | viability, T/C [11] 44.7% | viability, T/C [12] 36.1% | viability, T/C [13] 89.3% | viability, T/C [14] 61.5% | viability, T/C [15] 51.5% | viability, T/C [16] 47.2% | viability, T/C [17] 40.6% | viability, T/C [18] 41.4% | viability, T/C [19] 82.9% | viability, T/C [20] 65.1% | viability, T/C [21] 50.2% | viability, T/C [22] 47.4% | viability, T/C [23] 41.9% | viability, T/C [24] 38.3% | viability, T/C [25] 77.8% | viability, T/C [26] 63.2% | viability, T/C [27] 51.9% | viability, T/C [28] 47% | viability, T/C [29] 46.5% | viability, T/C [30] 37.8% | viability, T/C [31] 86% | viability, T/C [32] 58.5% | viability, T/C [33] 50.4% | viability, T/C [34] 53.3% | viability, T/C [35] 49.6% | viability, T/C [36] 40.2%
0.35 µM: IC50 (second compound 0.0316 µM)
0.576 µM: IC50 (second compound 3.16 µM)
0.364 µM: IC50 (second compound 0.316 µM)
0.467 µM: IC50 (second compound 1 µM)
0.631 µM: IC50 (second compound 0.1 µM)
0.441 µM: IC50 (second compound 10 µM)

C=CC(=O)N1CCN(c2nc(=O)n(-c3c(C)ccnc3C(C)C)c3nc(-c4c(O)cccc4F)c(F)cc23)C(C)C1 (stereo unspecified) + COC1C(OC(N)=O)C(O)C(Oc2ccc3c(O)c(NC(=O)c4ccc(O)c(CC=C(C)C)c4)c(=O)oc3c2C)OC1(C)C
> 10 µM: IC50 (second compound 0.0316 µM) | IC50 (second compound 0.1 µM) | IC50 (second compound 0.316 µM) | IC50 (second compound 1 µM) | IC50 (second compound 3.16 µM) | IC50 (second compound 10 µM)
inactive: viability, T/C [1] 104% | viability, T/C [2] 97.9% | viability, T/C [3] 110% | viability, T/C [4] 113% | viability, T/C [5] 114% | viability, T/C [6] 91.7% | viability, T/C [7] 109% | viability, T/C [8] 91.9% | viability, T/C [9] 106% | viability, T/C [10] 108% | viability, T/C [11] 115% | viability, T/C [12] 105% | viability, T/C [13] 107% | viability, T/C [14] 115% | viability, T/C [15] 104% | viability, T/C [16] 112% | viability, T/C [17] 123% | viability, T/C [18] 95.1% | viability, T/C [19] 118% | viability, T/C [20] 104% | viability, T/C [21] 112% | viability, T/C [22] 106% | viability, T/C [23] 114% | viability, T/C [24] 83.2% | viability, T/C [25] 102% | viability, T/C [26] 108% | viability, T/C [27] 104% | viability, T/C [28] 116% | viability, T/C [29] 124% | viability, T/C [30] 104% | viability, T/C [31] 96% | viability, T/C [32] 93.7% | viability, T/C [33] 106% | viability, T/C [34] 110% | viability, T/C [35] 111% | viability, T/C [36] 91%
